Molecules are shown by their SMILES.

One test deals with Mu-type opioid receptor (Bos taurus, UniProt P79350).
For another test, the target named is Opioid receptor delta 1 (Bos taurus, UniProt F1N083).
Sequence of Opioid receptor delta 1 (F1N083 whole entry): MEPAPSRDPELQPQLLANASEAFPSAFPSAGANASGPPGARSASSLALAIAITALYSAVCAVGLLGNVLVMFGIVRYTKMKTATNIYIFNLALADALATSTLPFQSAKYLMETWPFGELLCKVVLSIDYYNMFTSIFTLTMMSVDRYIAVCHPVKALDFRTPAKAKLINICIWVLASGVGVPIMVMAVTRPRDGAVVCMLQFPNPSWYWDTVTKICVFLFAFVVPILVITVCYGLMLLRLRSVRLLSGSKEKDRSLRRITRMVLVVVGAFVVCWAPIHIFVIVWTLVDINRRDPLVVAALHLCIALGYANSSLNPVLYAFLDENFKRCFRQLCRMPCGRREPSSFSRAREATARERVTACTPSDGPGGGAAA

Sequence of Mu-type opioid receptor (P79350 whole entry): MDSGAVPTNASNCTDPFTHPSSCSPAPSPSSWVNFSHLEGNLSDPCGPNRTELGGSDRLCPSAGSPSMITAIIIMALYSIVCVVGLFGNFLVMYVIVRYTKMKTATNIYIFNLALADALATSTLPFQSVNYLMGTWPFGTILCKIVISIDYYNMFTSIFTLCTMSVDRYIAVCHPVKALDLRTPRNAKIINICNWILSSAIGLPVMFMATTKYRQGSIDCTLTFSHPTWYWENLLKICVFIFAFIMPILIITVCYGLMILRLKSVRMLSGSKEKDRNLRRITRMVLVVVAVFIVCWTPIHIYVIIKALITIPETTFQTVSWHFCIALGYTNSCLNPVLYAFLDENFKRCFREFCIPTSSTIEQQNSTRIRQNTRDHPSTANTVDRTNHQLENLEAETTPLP

What is called Ki is the dissociation constant of the complex between target and ligand, obtained from inhibition or displacement. As to `COc1ccc2c3c1O[C@H]1C(=O)CCC4(NC(=O)/C=C\c5ccc(Cl)cc5)C(C2)N(CC2CC2)CCC314` (stereo partly specified) [MC-CAM], the Ki at Mu-type opioid receptor was 1.4 nM; at Opioid receptor delta 1, 12 nM.
Take `COc1ccc2c3c1O[C@H]1C(=O)CCC4(NC(=O)/C=C\c5ccc(Cl)cc5)C(C2)N(C)CCC314` (stereo partly specified) [CAM]: the Ki turned out to be 0.12 nM at Mu-type opioid receptor and 0.75 nM at Opioid receptor delta 1.
On Mu-type opioid receptor, `COc1ccc2c3c1O[C@H]1C(=O)CCC4(NC(=O)/C=C\c5ccc([N+](=O)[O-])cc5)C(C2)N(C)CCC314` (stereo partly specified) [CACO] yielded an inhibitory constant (Ki) of 0.46 nM.
In the case of `COc1ccc2c3c1O[C@H]1C(=O)CCC4(NC(=O)/C=C\c5ccc([N+](=O)[O-])cc5)C(C2)N(CC2CC2)CCC314` (stereo partly specified) [N-CPM-CACO], affinity at Opioid receptor delta 1 was put at a Ki of 16 nM.
